One series can be described thus: method code SF-GLC, from DOI: 10.1016/0048-3575(87)90042-3.
On to `CCNC(=O)NC(C)=O`, for which the logP is -0.01.

For `CNC(N)=O`, the logP was -1.4.

On to `CNC(=O)NC(C)=O`, for which the lipophilicity (logP) was -0.7.

Another series in a line: method code SF-AS, from DOI: 10.1016/0048-3575(87)90042-3.
Molecule `COc1ccccc1C(N)=O` displayed a lipophilicity (logP) of 0.84.

For the molecule `COc1ccccc1C(=O)NC(=O)Nc1ccc(Cl)cc1`, the logP came out at 4.35.

`Cc1cccc([N+](=O)[O-])c1C(N)=O` yielded a logP of 0.12.

The molecule `O=C(NC(=O)c1ccccc1)Nc1ccccc1` gave a logP of 3.39.

`NC(=O)c1c(F)cccc1F` yielded a logP of 0.25.

On to `NC(=O)Nc1ccccc1`, for which the logP came out at 0.83.

Turning to `Cc1cccc([N+](=O)[O-])c1C(=O)NC(=O)Nc1ccc(Cl)cc1`, the logP was found to be 3.75.

In turn, `CCNC(=O)NC(=O)c1ccccc1` registered a logP of 1.92.

Consider `CC(=O)NC(=O)Nc1ccccc1`, for which the logP turned out to be 1.6.

`CNC(=O)NC(=O)c1ccccc1` came in with a logP of 1.27.

For the origin of these results see the SangsterLogP compilation.
